Data reported in US20240279240A1, “HETEROCYCLIC DERIVATIVES AS JANUS KINASE INHIBITORS” (CHIESI FARMACEUTICI S.P.A., priority 2021, published 2024).

Columns and labels:
JAK 1 = JAK 1 (Homo sapiens, UniProt P23458); test: Biochemical potency on JAK1, TR-FRET LANCE Ultra kinase assay (examples 1-99); details: ATP at Km (20 μM), read-out: JAK1 inhibitory activity (pIC50 class) (converted)
Description: (§1) The objective of this study was to assess the capability of compounds to inhibit all 4 JAK isoforms activity in a cell-free environment. Assay for JAK 1, JAK 2, JAK 3 and TYK2 were performed by Time-resolved fluorescence resonance energy transfer (TR-FRET) technology. It consists in the interaction of two labelled binding partners detected by the energy transfer from an excited donor to an acceptor dye and measurement of light emission by the acceptor dye. LANCE Ultra kinase assay was used. In presence of JAK 1, JAK 2, JAK 3 and TYK2 kinases and ATP (corresponding to Km), the ULight peptide substrate (LANCE Ulight-JAK-1 (Tyr1023) Peptide, Perkin Elmer, TRF0121) is phosphorylated. It is then captured by Eu-anti-phospho-substrate antibody (LANCE Eu-W1024 Anti-phosphotyrosine (PT66), Perkin Elmer, AD0069), which bring the Eu-chelate donor and ULight acceptor dyes into close proximity. Upon excitation at 320 nm, the Eu-chelate transfers its energy to the ULight dye, resulting in a fluorescent light emission at 665 nm.
(§2) Serial dilutions of compounds in pure DMSO are prepared from 10 mM DMSO stock solutions. Compounds were tested in 384-well plate for 11 consecutive 5-fold dilutions starting from 20 μM highest concentration (20 μM-[…]). 200 nL of compound were transferred from mother plate to test plate by using Mosquito (TTP labtech). Assay was performed in 384-well Perkin Elmer test plate in 20 μL assay volume (kinase reaction) and 40 μL total volume (stopping reagent and antibody detection reagents). In 10 μL of substrate solution (peptide+ATP) 30/50/20/10 nM of peptide and 20/0.7/0.2/12 μM of ATP were added for JAK 1, JAK 2, JAK 3 and TYK2 respectively. 10 μL of enzyme solution was added to kinase reaction at these concentrations: 0.15/0.083/0.025/0.144 ng/μL of JAK 1, JAK 2, JAK 3 and TYK2 respectively. After shaking and 1.5 h of incubation at r.t., 20 μL of Stop (10 μL EDTA) and Detection mixture (10 μL Europium-anti-phospho antibody, final: 0.5 nM) were added. Reading was performed after 1 h of incubation on a EnVision 2104 reader (Perkin Elmer).
(§3) Calculation of IC50 data, curves and QC analysis was performed by using Excel tool and GraphPadPrism software, v9. Briefly, individual concentration-effect curves are generated by plotting the logarithm of the tested concentration of tested compounds (X) vs. corresponding percent inhibition values (Y) using least squares (ordinary) fit. Best fit IC50 values are calculated using Log(inhibitor) vs. normalized response—Variable slope equation, where Y=100/(1+10^((Log IC50−X)*HillSlope)). QC criteria parameters (Z′, S:B, R2, HillSlope) were checked for every IC50 curve. Calculation of IC50 data, curves and QC analysis were made using Excel tools and GraphPadPrism software. QC criteria parameters: Z′≥0.5, Hill Slope range 0.5 to 5, S:B>2.

JAK 2 = JAK 2 (Homo sapiens, UniProt O60674); test: Biochemical potency on JAK2, TR-FRET LANCE Ultra kinase assay (examples 1-99); details: ATP at Km (0.7 μM), read-out: JAK2 inhibitory activity (pIC50 class) (converted)
Description: as §1, §2, §3

JAK 3 = biological target: T1, JAK 3 (Homo sapiens, UniProt P52333); test: Biochemical potency on JAK3, TR-FRET LANCE Ultra kinase assay (examples 1-99); details: ATP at Km (0.2 μM), read-out: JAK3 inhibitory activity (pIC50 class) (converted)
T1 sequence (P52333 1-1124): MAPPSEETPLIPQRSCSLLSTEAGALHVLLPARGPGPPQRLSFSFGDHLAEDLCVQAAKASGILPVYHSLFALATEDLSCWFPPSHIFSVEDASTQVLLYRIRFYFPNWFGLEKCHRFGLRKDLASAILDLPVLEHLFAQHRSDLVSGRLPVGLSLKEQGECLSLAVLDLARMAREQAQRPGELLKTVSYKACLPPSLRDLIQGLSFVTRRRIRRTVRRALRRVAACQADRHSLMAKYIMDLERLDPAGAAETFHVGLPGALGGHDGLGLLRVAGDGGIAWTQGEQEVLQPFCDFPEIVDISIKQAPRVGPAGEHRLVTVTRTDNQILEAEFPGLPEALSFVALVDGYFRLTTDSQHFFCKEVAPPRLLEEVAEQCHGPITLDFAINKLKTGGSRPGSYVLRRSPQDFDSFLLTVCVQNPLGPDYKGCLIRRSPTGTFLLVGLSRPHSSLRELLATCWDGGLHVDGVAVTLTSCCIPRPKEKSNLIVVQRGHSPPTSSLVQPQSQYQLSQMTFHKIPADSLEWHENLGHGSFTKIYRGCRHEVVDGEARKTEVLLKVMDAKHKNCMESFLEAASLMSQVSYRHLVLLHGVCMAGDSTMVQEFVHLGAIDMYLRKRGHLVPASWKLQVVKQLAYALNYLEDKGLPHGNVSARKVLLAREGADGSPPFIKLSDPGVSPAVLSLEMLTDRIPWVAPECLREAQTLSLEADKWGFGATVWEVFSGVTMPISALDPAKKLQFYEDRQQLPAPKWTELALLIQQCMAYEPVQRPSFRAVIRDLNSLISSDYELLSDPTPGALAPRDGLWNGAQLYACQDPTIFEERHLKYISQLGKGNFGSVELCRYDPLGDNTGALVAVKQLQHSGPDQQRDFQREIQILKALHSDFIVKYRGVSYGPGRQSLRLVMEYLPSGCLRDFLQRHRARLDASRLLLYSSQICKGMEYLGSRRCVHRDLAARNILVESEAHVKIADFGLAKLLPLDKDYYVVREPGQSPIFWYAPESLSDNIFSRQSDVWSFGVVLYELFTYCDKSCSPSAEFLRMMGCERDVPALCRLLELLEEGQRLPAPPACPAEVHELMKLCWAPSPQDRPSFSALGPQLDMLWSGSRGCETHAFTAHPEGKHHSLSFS
Description: as §1, §2, §3

TYK2 = TYK2 (Homo sapiens, UniProt P29597); test: Biochemical potency on Tyk2, TR-FRET LANCE Ultra kinase assay (examples 1-99); details: ATP at Km (12 μM), read-out: Tyk2 inhibitory activity (pIC50 class) (converted)
Description: as §1, §2, §3

Chain of JAK 2 (O60674 whole entry): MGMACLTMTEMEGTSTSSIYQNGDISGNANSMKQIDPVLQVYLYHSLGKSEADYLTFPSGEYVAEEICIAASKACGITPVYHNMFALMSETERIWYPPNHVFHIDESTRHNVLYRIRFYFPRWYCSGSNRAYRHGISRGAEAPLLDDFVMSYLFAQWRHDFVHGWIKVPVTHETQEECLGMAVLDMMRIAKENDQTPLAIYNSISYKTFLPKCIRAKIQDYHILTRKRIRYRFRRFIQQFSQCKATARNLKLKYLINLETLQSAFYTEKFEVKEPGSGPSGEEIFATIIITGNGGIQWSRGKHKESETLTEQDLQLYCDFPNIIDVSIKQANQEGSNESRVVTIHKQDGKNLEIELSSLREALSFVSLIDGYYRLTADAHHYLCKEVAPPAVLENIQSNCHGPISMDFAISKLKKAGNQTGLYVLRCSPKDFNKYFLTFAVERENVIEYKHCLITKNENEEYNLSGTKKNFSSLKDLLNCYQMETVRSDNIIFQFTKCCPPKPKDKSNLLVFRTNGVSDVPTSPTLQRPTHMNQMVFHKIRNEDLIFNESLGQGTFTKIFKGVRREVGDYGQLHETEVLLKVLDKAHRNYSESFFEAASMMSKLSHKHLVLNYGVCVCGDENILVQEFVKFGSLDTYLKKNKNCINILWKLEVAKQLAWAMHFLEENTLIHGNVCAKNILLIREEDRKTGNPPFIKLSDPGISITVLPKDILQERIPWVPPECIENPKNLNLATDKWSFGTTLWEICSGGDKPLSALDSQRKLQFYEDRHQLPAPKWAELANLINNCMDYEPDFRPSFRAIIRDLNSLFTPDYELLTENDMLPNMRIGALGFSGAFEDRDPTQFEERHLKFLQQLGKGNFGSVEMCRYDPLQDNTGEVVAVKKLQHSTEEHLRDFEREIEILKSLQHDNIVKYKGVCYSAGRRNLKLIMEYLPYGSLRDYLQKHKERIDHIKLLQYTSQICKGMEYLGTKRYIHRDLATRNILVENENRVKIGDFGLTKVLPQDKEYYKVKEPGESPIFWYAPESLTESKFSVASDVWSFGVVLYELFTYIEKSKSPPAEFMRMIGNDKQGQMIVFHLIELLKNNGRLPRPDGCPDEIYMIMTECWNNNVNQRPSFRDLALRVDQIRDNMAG
Chain of TYK2 (P29597 whole entry): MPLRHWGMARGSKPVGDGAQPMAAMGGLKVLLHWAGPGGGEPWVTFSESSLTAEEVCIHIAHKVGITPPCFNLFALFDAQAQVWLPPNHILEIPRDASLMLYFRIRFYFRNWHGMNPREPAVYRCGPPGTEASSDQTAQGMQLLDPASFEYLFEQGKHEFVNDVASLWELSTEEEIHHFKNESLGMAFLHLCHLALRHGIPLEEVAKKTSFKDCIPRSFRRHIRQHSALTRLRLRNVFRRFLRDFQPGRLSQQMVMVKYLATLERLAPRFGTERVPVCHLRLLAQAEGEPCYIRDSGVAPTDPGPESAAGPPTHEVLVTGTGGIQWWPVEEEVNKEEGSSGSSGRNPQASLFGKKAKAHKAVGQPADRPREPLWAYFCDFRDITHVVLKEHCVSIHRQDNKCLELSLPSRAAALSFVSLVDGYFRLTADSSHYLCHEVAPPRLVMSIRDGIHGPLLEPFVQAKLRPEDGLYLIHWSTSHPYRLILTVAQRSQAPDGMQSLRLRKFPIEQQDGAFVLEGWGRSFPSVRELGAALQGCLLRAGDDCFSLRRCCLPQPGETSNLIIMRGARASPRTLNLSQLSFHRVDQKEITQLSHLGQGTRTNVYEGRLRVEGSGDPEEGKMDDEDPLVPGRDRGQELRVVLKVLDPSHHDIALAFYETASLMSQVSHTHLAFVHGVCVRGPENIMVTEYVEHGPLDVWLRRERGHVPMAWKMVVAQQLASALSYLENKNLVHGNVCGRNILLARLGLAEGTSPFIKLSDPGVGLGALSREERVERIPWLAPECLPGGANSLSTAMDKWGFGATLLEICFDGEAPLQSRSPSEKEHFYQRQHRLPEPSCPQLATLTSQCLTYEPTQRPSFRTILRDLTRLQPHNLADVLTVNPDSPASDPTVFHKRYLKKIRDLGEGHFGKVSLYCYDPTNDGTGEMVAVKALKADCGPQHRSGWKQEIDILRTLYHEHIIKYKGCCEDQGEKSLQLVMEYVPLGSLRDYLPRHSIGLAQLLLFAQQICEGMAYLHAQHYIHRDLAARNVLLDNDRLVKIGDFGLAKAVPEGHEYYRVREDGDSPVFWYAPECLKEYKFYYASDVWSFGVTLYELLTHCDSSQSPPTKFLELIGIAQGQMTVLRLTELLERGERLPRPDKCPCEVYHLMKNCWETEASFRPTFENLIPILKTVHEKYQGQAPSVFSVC
Chain of JAK 1 (P23458 whole entry, canonical isoform): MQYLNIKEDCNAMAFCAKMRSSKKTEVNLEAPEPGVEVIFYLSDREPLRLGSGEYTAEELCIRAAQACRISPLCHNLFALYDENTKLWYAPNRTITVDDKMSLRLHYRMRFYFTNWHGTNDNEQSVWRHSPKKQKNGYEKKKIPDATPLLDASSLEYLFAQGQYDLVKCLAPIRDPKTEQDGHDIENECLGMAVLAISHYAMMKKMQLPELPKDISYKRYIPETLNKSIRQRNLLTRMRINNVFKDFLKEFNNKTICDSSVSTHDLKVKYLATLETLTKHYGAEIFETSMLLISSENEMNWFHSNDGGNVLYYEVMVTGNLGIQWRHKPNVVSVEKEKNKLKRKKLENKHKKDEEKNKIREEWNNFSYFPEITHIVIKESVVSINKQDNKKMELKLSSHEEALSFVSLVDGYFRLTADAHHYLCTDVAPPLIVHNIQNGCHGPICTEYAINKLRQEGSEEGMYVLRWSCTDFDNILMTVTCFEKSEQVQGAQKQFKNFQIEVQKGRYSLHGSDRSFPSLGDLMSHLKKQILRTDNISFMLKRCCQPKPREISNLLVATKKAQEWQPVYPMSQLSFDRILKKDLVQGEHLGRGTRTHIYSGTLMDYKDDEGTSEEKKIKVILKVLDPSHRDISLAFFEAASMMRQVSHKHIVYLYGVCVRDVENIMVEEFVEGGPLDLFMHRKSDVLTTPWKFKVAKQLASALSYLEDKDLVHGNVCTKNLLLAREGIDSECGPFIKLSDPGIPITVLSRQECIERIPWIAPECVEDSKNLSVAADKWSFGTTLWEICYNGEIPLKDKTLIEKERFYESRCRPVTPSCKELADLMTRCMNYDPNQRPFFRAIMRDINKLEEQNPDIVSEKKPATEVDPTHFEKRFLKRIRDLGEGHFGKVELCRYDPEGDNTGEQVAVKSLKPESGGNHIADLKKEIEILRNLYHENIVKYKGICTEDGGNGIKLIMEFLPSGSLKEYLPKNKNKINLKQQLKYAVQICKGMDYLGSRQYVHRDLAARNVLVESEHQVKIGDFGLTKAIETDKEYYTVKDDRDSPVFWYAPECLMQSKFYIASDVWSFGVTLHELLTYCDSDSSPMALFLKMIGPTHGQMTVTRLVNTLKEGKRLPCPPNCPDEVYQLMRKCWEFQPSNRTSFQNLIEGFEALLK

| Structure (SMILES) | IC50 (JAK 1) [nM] | IC50 (JAK 2) [nM] | IC50 (JAK 3) [nM] | IC50 (TYK2) [nM] |
| --- | --- | --- | --- | --- |
| COc1ccc(Cl)cc1-n1nc(C(=O)N[C@H]2C[C@H](N(C)C)C2)c2cnc(-c3cnn4cccnc34)cc21 [Example 80, 1-(5-chloro-2-methoxyphenyl)-N-((1r,3r)-3-(dimethylamino)cyclobutyl)-6-(pyrazolo[1,5-a]pyrimidin-3-yl)-1H-pyrazolo[4,3-c]pyridine-3-carboxamide] | 5.01 to 50.1 | 5.01 to 50.1 | 5.01 to 50.1 | 5.01 to 50.1 |
| COc1ccc(S(C)(=O)=O)cc1-n1nc(C(=O)NCCN(C)C)c2cnc(-c3cnn4cccnc34)cc21 [Example 82, N-(2-(dimethylamino)ethyl)-1-(2-methoxy-5-(methylsulfonyl)phenyl)-6-(pyrazolo[1,5-a]pyrimidin-3-yl)-1H-pyrazolo[4,3-c]pyridine-3-carboxamide] | 5.01 to 50.1 | 5.01 to 50.1 | 5.01 to 50.1 | > 50.1 |
| COc1ccc(Cl)cc1-n1nc(N2CC(CO)C2)c2cnc(-c3cnn4cccnc34)cc21 [Example 49, (1-(1-(5-chloro-2-methoxyphenyl)-6-(pyrazolo[1,5-a]pyrimidin-3-yl)-1H-pyrazolo[4,3-c]pyridin-3-yl)azetidin-3-yl)methanol] | 5.01 to 50.1 | 5.01 to 50.1 | 5.01 to 50.1 | 5.01 to 50.1 |
| COc1cc(O)c(F)cc1-n1nc(C(=O)NCCCN(C)C)c2cnc(-c3cnn4cccnc34)cc21 [Example 88, N-(3-(dimethylamino)propyl)-1-(5-fluoro-4-hydroxy-2-methoxyphenyl)-6-(pyrazolo[1,5-a]pyrimidin-3-yl)-1H-pyrazolo[4,3-c]pyridine-3-carboxamide] | ≤ 5.01 | 5.01 to 50.1 | 5.01 to 50.1 | 5.01 to 50.1 |
| CNCc1nn(-c2cc(S(C)(=O)=O)ccc2OC)c2cc(-c3cnn4cccnc34)ncc12 [Example 89, 1-(1-(2-Methoxy-5-(methylsulfonyl)phenyl)-6-(pyrazolo[1,5-a]pyrimidin-3-yl)-1H-pyrazolo[4,3-c]pyridin-3-yl)-N-methylmethanamine] | 5.01 to 50.1 | 5.01 to 50.1 | > 50.1 | > 50.1 |
| CN(C)[C@H]1C[C@@H](NC(=O)c2nn(-c3cc(Cl)ccc3OC(F)F)c3cc(-c4cnn5cccnc45)ncc23)C1 [Example 36, 1-(5-chloro-2-(difluoromethoxy)phenyl)-N-((1s,3s)-3-(dimethylamino)cyclobutyl)-6-(pyrazolo[1,5-a]pyrimidin-3-yl)-1H-pyrazolo[4,3-c]pyridine-3-carboxamide] | 5.01 to 50.1 | 5.01 to 50.1 | 5.01 to 50.1 | > 50.1 |
| CNS(=O)(=O)c1ccc(OC)c(-n2nc(C)c3cnc(-c4cnn5cccnc45)cc32)c1 [Example 14, 4-methoxy-N-methyl-3-(3-methyl-6-(pyrazolo[1,5-a]pyrimidin-3-yl)-1H-pyrazolo[4,3-c]pyridin-1-yl)benzenesulfonamide] | 5.01 to 50.1 | ≤ 5.01 | ≤ 5.01 | 5.01 to 50.1 |
| COc1ccc(S(=O)(=O)CCCO)cc1-n1nc(C)c2cnc(-c3cnn4cccnc34)cc21 [Example 9, 3-((4-methoxy-3-(3-methyl-6-(pyrazolo[1,5-a]pyrimidin-3-yl)-1H-pyrazolo[4,3-c]pyridin-1-yl)phenyl)sulfonyl)propan-1-ol] | 5.01 to 50.1 | ≤ 5.01 | 5.01 to 50.1 | > 50.1 |
| COc1ccc(C)cc1-n1nc(NCCN(C)C)c2cnc(-c3cnn4cccnc34)cc21 [Example 45, N1-(1-(2-methoxy-5-methylphenyl)-6-(pyrazolo[1,5-a]pyrimidin-3-yl)-1H-pyrazolo[4,3-c]pyridin-3-yl)-N2,N2-dimethylethane-1,2-diamine] | 5.01 to 50.1 | 5.01 to 50.1 | 5.01 to 50.1 | > 50.1 |
| Cc1nn(-c2cc(SCC(N)=O)ccc2OC(F)F)c2cc(-c3cnn4cccnc34)ncc12 [Example 68, 2-((4-(difluoromethoxy)-3-(3-methyl-6-(pyrazolo[1,5-a]pyrimidin-3-yl)-1H-pyrazolo[4,3-c]pyridin-1-yl)phenyl)thio)acetamide] | 5.01 to 50.1 | ≤ 5.01 | ≤ 5.01 | > 50.1 |
| COc1cccc(S(=O)(=O)c2ccc(OC(F)F)c(-n3nc(C)c4cnc(-c5cnn6cccnc56)cc43)c2)c1 [Example 25, 1-(2-(difluoromethoxy)-5-((3-methoxyphenyl)sulfonyl)phenyl)-3-methyl-6-(pyrazolo[1,5-a]pyrimidin-3-yl)-1H-pyrazolo[4,3-c]pyridine] | 5.01 to 50.1 | ≤ 5.01 | ≤ 5.01 | 5.01 to 50.1 |
| COc1ccc(C(F)(F)F)cc1-n1nc(C)c2cnc(-c3cnn4cccnc34)cc21 [Example 4, 1-(2-methoxy-5-(trifluoromethyl)phenyl)-3-methyl-6-(pyrazolo[1,5-a]pyrimidin-3-yl)-1H-pyrazolo[4,3-c]pyridine] | 5.01 to 50.1 | ≤ 5.01 | 5.01 to 50.1 | > 50.1 |
| COCCS(=O)(=O)c1ccc(OC(F)F)c(-n2nc(C)c3cnc(-c4cnn5cccnc45)cc32)c1 [Example 20, 1-(2-(difluoromethoxy)-5-((2-methoxyethyl)sulfonyl)phenyl)-3-methyl-6-(pyrazolo[1,5-a]pyrimidin-3-yl)-1H-pyrazolo[4,3-c]pyridine] | 5.01 to 50.1 | ≤ 5.01 | ≤ 5.01 | 5.01 to 50.1 |
| Cc1nn(-c2cc(SC3CC3)ccc2OC(F)F)c2cc(-c3cnn4cccnc34)ncc12 [Example 71, 1-(5-(cyclopropylthio)-2-(difluoromethoxy)phenyl)-3-methyl-6-(pyrazolo[1,5-a]pyrimidin-3-yl)-1H-pyrazolo[4,3-c]pyridine] | 5.01 to 50.1 | 5.01 to 50.1 | 5.01 to 50.1 | > 50.1 |
